#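 Each compound was tested at five concentrations against cells in 96-well plates for 48 hours. TGI: concentration producing complete growth inhibition.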
# Columns and labels:
# Experiment in all cases: NCI anticancer screen, dose series, 48 h
# [1] = system: MDA-MB-231 breast
# [2] = system: DU-145 prostate
# [3] = system: HS 578T breast
# [4] = system: SF-539 CNS
# [5] = system: HCT-116 colon
# [6] = system: A549 NSCLC
# [7] = system: NCI-H522 lung
# [8] = system: RXF 393 renal
# [9] = system: M14 melanoma
# [10] = system: U251 CNS
# [11] = system: TK-10 renal
# [12] = system: HT29 colon
# [13] = system: MDA-N
# [14] = system: OVCAR-8 ovarian
# [15] = system: CAKI-1 renal
# [16] = system: COLO 205 colon
# [17] = system: SNB-75 CNS
# [18] = system: UO-31 renal
# [19] = system: SK-MEL-5 melanoma
# [20] = system: OVCAR-5 ovarian
# [21] = system: NCI-H226 lung
# [22] = system: NCI-H460 lung
# [23] = system: KM12 colon
# [24] = system: SN12C renal
# [25] = system: HCT-15 colon
# [26] = system: PC-3 prostate
# [27] = system: RPMI-8226 leukemia
# [28] = system: SK-OV-3 ovarian
# [29] = system: MOLT-4 leukemia
# [30] = system: UACC-257 melanoma
# [31] = system: MCF7 breast
# [32] = system: OVCAR-3 ovarian
# [33] = system: SNB-19 CNS
# [34] = system: SK-MEL-28 melanoma
# [35] = system: CCRF-CEM leukemia
# [36] = system: LOX IMVI melanoma
# [37] = system: 786-0 renal
# [38] = system: T-47D breast
# [39] = system: HL-60(TB) leukemia
# [40] = system: SK-MEL-2 melanoma
# [41] = system: NCI/ADR-RES ovarian
# [42] = system: HOP-62 NSCLC
# [43] = system: ACHN renal
# [44] = system: MDA-MB-435
# [45] = system: IGROV1 ovarian
# [46] = system: SW-620 colon
# [47] = system: SR leukemia
# [48] = system: K-562 leukemia
# [49] = system: EKVX NSCLC
# [50] = system: SF-295 CNS
# [51] = system: SF-268 CNS
# [52] = system: HOP-92 NSCLC
# [53] = system: NCI-H23 lung
# [54] = system: A498 renal
# [55] = system: OVCAR-4 ovarian
# [56] = system: HCC-2998 colon
# [57] = system: MALME-3M melanoma
structure (smiles),measurement,setting,value
CC1(C)CC(=O)c2c(nc3c(ccc4ccccc43)c2-c2ccc(NC(=O)CCCC(=O)Nc3ccc(-c4c5c(nc6c4ccc4ccccc46)CC(C)(C)CC5=O)cc3)cc2)C1,TGI,[1],> 100 µM
same,TGI,[2],> 100 µM
same,TGI,[3],> 100 µM
same,TGI,[4],> 100 µM
same,TGI,[5],> 100 µM
same,TGI,[6],> 100 µM
same,TGI,[7],> 100 µM
same,TGI,[8],> 100 µM
same,TGI,[9],> 100 µM
same,TGI,[10],> 100 µM
same,TGI,[11],> 100 µM
same,TGI,[12],> 100 µM
same,TGI,[13],> 100 µM
same,TGI,[14],> 100 µM
same,TGI,[15],> 100 µM
same,TGI,[16],> 100 µM
same,TGI,[17],> 100 µM
same,TGI,[18],> 100 µM
same,TGI,[19],> 100 µM
same,TGI,[20],> 100 µM
same,TGI,[21],> 100 µM
same,TGI,[22],> 100 µM
same,TGI,[23],> 100 µM
same,TGI,[24],> 100 µM
same,TGI,[25],> 100 µM
same,TGI,[26],> 100 µM
same,TGI,[27],> 100 µM
same,TGI,[28],> 100 µM
same,TGI,[29],> 100 µM
same,TGI,[30],> 100 µM
same,TGI,[31],> 100 µM
same,TGI,[32],> 100 µM
same,TGI,[33],> 100 µM
same,TGI,[34],> 100 µM
same,TGI,[35],> 100 µM
same,TGI,[36],> 100 µM
same,TGI,[37],> 100 µM
same,TGI,[38],> 100 µM
same,TGI,[39],> 100 µM
same,TGI,[40],> 100 µM
same,TGI,[41],> 100 µM
same,TGI,[42],> 100 µM
same,TGI,[43],> 100 µM
same,TGI,[44],> 100 µM
same,TGI,[45],> 100 µM
same,TGI,[46],> 100 µM
same,TGI,[47],> 100 µM
same,TGI,[48],> 100 µM
same,TGI,[49],> 100 µM
same,TGI,[50],> 100 µM
same,TGI,[51],> 100 µM
CCOC(=O)Cn1nc2ccc(Nc3c(C)[n+]([O-])c4cc(F)c(OCC)cc4[n+]3[O-])cc2n1,TGI,[1],> 100 µM
same,TGI,[2],> 100 µM
same,TGI,[3],> 100 µM
same,TGI,[4],> 100 µM
same,TGI,[5],> 100 µM
same,TGI,[7],> 100 µM
same,TGI,[8],51.9 µM
same,TGI,[9],> 100 µM
same,TGI,[10],> 100 µM
same,TGI,[11],71.8 µM
same,TGI,[52],63.8 µM
same,TGI,[12],> 100 µM
same,TGI,[13],> 100 µM
same,TGI,[14],> 100 µM
same,TGI,[15],> 100 µM
same,TGI,[18],> 100 µM
same,TGI,[19],> 100 µM
same,TGI,[20],> 100 µM
same,TGI,[21],> 100 µM
same,TGI,[22],> 100 µM
same,TGI,[23],> 100 µM
same,TGI,[25],> 100 µM
same,TGI,[26],> 100 µM
same,TGI,[27],> 100 µM
same,TGI,[28],> 100 µM
same,TGI,[29],> 100 µM
same,TGI,[30],> 100 µM
same,TGI,[31],> 100 µM
same,TGI,[32],> 100 µM
same,TGI,[34],> 100 µM
same,TGI,[35],> 100 µM
same,TGI,[36],> 100 µM
same,TGI,[37],> 100 µM
same,TGI,[53],> 100 µM
same,TGI,[38],> 100 µM
same,TGI,[39],> 100 µM
same,TGI,[40],> 100 µM
same,TGI,[41],> 100 µM
same,TGI,[42],> 100 µM
same,TGI,[43],90.2 µM
same,TGI,[54],> 100 µM
same,TGI,[55],> 100 µM
same,TGI,[44],> 100 µM
same,TGI,[45],> 100 µM
same,TGI,[46],> 100 µM
same,TGI,[47],> 100 µM
same,TGI,[48],> 100 µM
same,TGI,[49],> 100 µM
same,TGI,[50],> 100 µM
same,TGI,[51],> 100 µM
O=c1ccn(C2OC(COC3CCCCO3)C(OC3CCCCO3)C2OC2CCCCO2)c(=O)n1-c1ccccc1 (stereo not drawn),TGI,[1],> 100 µM
same,TGI,[2],> 100 µM
same,TGI,[3],> 100 µM
same,TGI,[4],> 100 µM
same,TGI,[5],> 100 µM
same,TGI,[6],> 100 µM
same,TGI,[7],> 100 µM
same,TGI,[56],> 100 µM
same,TGI,[8],> 100 µM
same,TGI,[9],> 100 µM
same,TGI,[10],> 100 µM
same,TGI,[11],> 100 µM
same,TGI,[52],> 100 µM
same,TGI,[12],> 100 µM
same,TGI,[13],> 100 µM
same,TGI,[14],> 100 µM
same,TGI,[15],> 100 µM
same,TGI,[16],> 100 µM
same,TGI,[17],> 100 µM
same,TGI,[18],> 100 µM
same,TGI,[19],> 100 µM
same,TGI,[20],> 100 µM
same,TGI,[21],> 100 µM
same,TGI,[22],> 100 µM
same,TGI,[23],> 100 µM
same,TGI,[24],> 100 µM
same,TGI,[25],> 100 µM
same,TGI,[26],> 100 µM
same,TGI,[27],> 100 µM
same,TGI,[28],> 100 µM
same,TGI,[29],> 100 µM
same,TGI,[30],> 100 µM
same,TGI,[31],> 100 µM
same,TGI,[32],> 100 µM
same,TGI,[33],> 100 µM
same,TGI,[34],> 100 µM
same,TGI,[35],> 100 µM
same,TGI,[36],> 100 µM
same,TGI,[37],> 100 µM
same,TGI,[53],> 100 µM
same,TGI,[38],> 100 µM
same,TGI,[39],> 100 µM
same,TGI,[40],> 100 µM
same,TGI,[41],> 100 µM
same,TGI,[42],> 100 µM
same,TGI,[43],> 100 µM
same,TGI,[54],> 100 µM
same,TGI,[55],> 100 µM
same,TGI,[44],> 100 µM
same,TGI,[45],> 100 µM
same,TGI,[46],> 100 µM
same,TGI,[47],> 100 µM
same,TGI,[48],> 100 µM
same,TGI,[57],> 100 µM
same,TGI,[49],> 100 µM
same,TGI,[50],> 100 µM
same,TGI,[51],> 100 µM

# Source: PubChem BioAssay (NCI)
